The record followed here is US20050019314A1, “Method and compositions for treating respiratory pathologies” (priority 2001, published 2005).

Common to all, as to assay type: in vivo, rat
Data set [1] concerns male Wistar rats. Kind of data set: Pulmonary paracellular permeability to 125I-labelled human serum albumin after intratracheal Pseudomonas aeruginosa LPS. The procedure: For this experiment, three groups of 6 male Wistar rats (200-225 g) were pretreated either with ML-7 by the IP route (3 mg/kg then 1 mg/kg 3 times a day for 48 h) or the vehicle (ethanol 10%). One hour after the next-to-last administration of ML-7, under urethane anesthesia ([…] IP), a slow intratracheal infusion of 150 μl of an iso-osmolar solution (5% bovine albumin+PBS) containing the tracer and containing (2 groups) or not containing (control group) LPS (1 μg/rat) was given.

Data set [2] has as its system male Wistar rats. Kind of data set: Immune cell accumulation in bronchoalveolar lavage fluid induced by intratracheal instillation of taurocholate (ML-7). The procedure: For this experiment, three groups of 8 male Wistar rats (250-300 g) were given either ML-7 by the IP route at a dose of 1 mg/kg/12 h for 36 hours, or the vehicle alone. […] At time t=2 h after the intratracheal instillation, animals were anesthetized for bronchoalveolar lavage, then sacrificed.

In data set [3] the test system is male Wistar rats. Kind of data set: Immune cell accumulation in bronchoalveolar lavage fluid induced by intratracheal infusion of Pseudomonas aeruginosa LPS. The procedure:
For this experiment, three groups of 7 male Wistar rats (200-225 g) were used. Animals were pretreated with either ML-7 by the IP route (3 mg/kg then 1 mg/kg, 3 times a day for 48 h) or with the vehicle (ethanol 10%). One hour after the next-to-last ML-7 administration, under urethane anesthesia ([…]), a slow intratracheal infusion of 150 μl of an iso-osmolar solution (5% bovine albumin+PBS) containing (2 groups) or not containing (control group) LPS (1 μg/rat) was given. Four hours after the intratracheal infusion, bronchoalveolar lavage was performed.

Data set [4] deals with male Wistar rats. Kind of data set: Immune cell accumulation in bronchoalveolar lavage fluid induced by intratracheal infusion of taurocholate (PD-98059). The procedure:
For this experiment, three groups of 8 male Wistar rats (250-300 g) were given either PD-98059 by the IP route (1 mg/kg/12 h, 36 h) or the vehicle alone (DMSO).

The subject of data set [5] is male Wistar rats. Kind of data set: Immune cell accumulation in bronchoalveolar lavage fluid induced by intranasal instillation of SLIGRL in rats. The procedure:
At time t=10 days, the four groups of animals were given a slow intranasal instillation of 200 μl of physiologic serum containing (groups 2 and 4) or not containing (groups 1 and 3) 0.2 mg of SLIGRL.
At time t=3 h after intranasal instillation, animals were anesthetized for bronchoalveolar lavage, then sacrificed.

[6] abbreviates: ML-7 1 mg/kg/12 h, 36 h IP + taurocholate intratracheal, BAL 2 h, mean ± SD.
Setting [7] is: ML-7 (3 mg/kg then 1 mg/kg 3 times a day for 48 h IP) + LPS, BAL 4 h, mean ± SEM.
The mark [8] stands for this setting: PD-98059 1 mg/kg/12 h, 36 h IP + taurocholate, BAL 2 h, mean ± SEM.
Where [9] appears, read: Taurine 10% in drinking water 10 days + 0.9% NaCl IN, BAL 3 h.
The mark [10] stands for this setting: Taurine 10% in drinking water 10 days + PAR 2 (SLIGRL) IN, BAL 3 h.
The mark [11] stands for this setting: PAR 2 (SLIGRL) 0.2 mg/kg IN alone, no taurine, BAL 3 h after instillation.

Marks after values point to notes of the source that are not given here.

Regarding `O=S(=O)(c1cccc2c(I)cccc12)N1CCCNCC1` [ML-7, 1-(5-iodonaphtalène-1-sulfonyl)-1H-hexahydro-1,4-diazepine], the “effect on vascular endothelial cells (endothelium permeability, tone, pulmonary circulating hemodynamics)” value in the data set with male Wistar rats [1] (ML-7 IP + LPS, concluded from unchanged plasma radioactivity) is “does not present effect”. Moreover, the “LPS-induced increase in pulmonary permeability” value with male Wistar rats [1] (ML-7 pretreatment IP (3 mg/kg then 1 mg/kg 3 times a day for 48 h) + LPS) was “inhibited”. Moreover, in the data set with male Wistar rats [2] (setting [6]), the “Leucocytes in BAL” value is reported as 4160 ± 573, the “Lymphocytes in BAL” value stood at 101 ± 44, the “Macrophages in BAL” value was 3585 ± 398 and the “Neutrophils in BAL” value is on record as 473 ± 216. Also, the “intra-alveolar accumulation of immune cells (in words)” value with male Wistar rats [2] (ML-7 IP + intratracheal taurocholate) was “significantly reduces”. Besides, in the data set on male Wistar rats [3] (setting [7]), the “Leucocytes in BAL” value was 17243 ± 2956 cells/mm^3 BAL, the “Lymphocytes in BAL” value is 902 ± 375 cells/mm^3 BAL, the “Macrophages in BAL” value stood at 10708 ± 1713 cells/mm^3 BAL and the “Neutrophils in BAL” value is listed as 6587 ± 1749 cells/mm^3 BAL. For the same molecule, the “LPS-induced increase in the number of neutrophils in BAL (in words)” value in the data set with male Wistar rats [3] (ML-7 pretreatment IP + LPS) is listed as “reduced”.
Regarding `COc1cccc(-c2cc(=O)c3ccccc3o2)c1N` [PD-98059, 2-(amino-3-methoxyphenyl)-4H-1-benzopyran-4-one], in the data set on male Wistar rats [4] (setting [8]), the “Eosinophils in BAL” value was 27 ± 27 cells/mm^3 BAL, the “Leucocytes in BAL” value amounted to 21424 ± 3164 cells/mm^3 BAL, the “Lymphocytes in BAL” value worked out at 774 ± 183 cells/mm^3 BAL and the “Macrophages in BAL” value was 17956 ± 2465 cells/mm^3 BAL. In addition, the “Neutrophils in BAL” value in the data set on male Wistar rats [4] (setting [8]) is reported as 2652 ± 600 cells/mm^3 BAL. Further, the “intra-alveolar accumulation of immune cells (in words)” value in the data set with male Wistar rats [4] (PD-98059 IP + intratracheal taurocholate) is “reduces”.
Consider `NCCS(=O)(=O)O` [Taurine, taurine], for which, in the data set on male Wistar rats [5] (setting [9]), the “Eosinophils in BAL” value came out at 17 ± 1 mm^3, the “Lymphocytes in BAL” value amounted to 22 ± 8 mm^3, the “Macrophages in BAL” value stood at 1651 ± 72 mm^3 and the “Neutrophils in BAL” value was 34 ± 3 mm^3. In addition, in the data set on male Wistar rats [5] (setting [9]), the “Tot. Leucocytes in BAL” value stood at 1728 ± 111 mm^3. For the same molecule, in the data set on male Wistar rats [5] (setting [10]), the “Eosinophils in BAL” value is recorded as 17 ± 1* mm^3, the “Lymphocytes in BAL” value is 22 ± 8* mm^3, the “Macrophages in BAL” value is reported as 1967 ± 103* mm^3 and the “Neutrophils in BAL” value is reported as 34 ± 3* mm^3. Besides, the “Tot. Leucocytes in BAL” value in the data set on male Wistar rats [5] (setting [10]) was 2086 ± 134* mm^3. Moreover, the “SLIGRL-induced accumulation of eosinophils and neutrophils in BAL (in words)” value in the data set on male Wistar rats [5] (animals treated with taurine, t = 3 h) is on record as “not in animals treated with taurine”.
Consider SLIGRL [PAR 2], for which, in the data set on male Wistar rats [5] (setting [11]), the “Eosinophils in BAL” value is given as 32 ± 2^+ mm^3, the “Lymphocytes in BAL” value is on record as 297 ± 28 mm^3, the “Macrophages in BAL” value is listed as 5559 ± 63^+ mm^3 and the “Neutrophils in BAL” value was 656 ± 41^+ mm^3. The “Tot. Leucocytes in BAL” value in the data set on male Wistar rats [5] (setting [11]) was 6464 ± 99^+ mm^3. Also, the “eosinophils and neutrophils in bronchoalveolar lavage fluid (in words)” value in the data set with male Wistar rats [5] (intranasal SLIGRL, control animals (no taurine), t = 3 h) was “results in accumulation”.
